One data set has as its system UBE3A protein. The data set is described as follows: western blot of UBE3A protein in Ube3a m-/p+ primary neurons. The data set is classed as cell-based, mouse. The settings on record: 72 h at DIV7, 0.3 µM topotecan, 1 µM (S)-PHA533533, 0.1 µM 3, 0.3 µM (±)-4. On the procedure:
2’ MOE gapmer antisense oligonucleotides (ASOs) designed to target mouse Cdk2 sequence […], Cdk5 sequence […], Top1 sequence […], and scrambled […] sequence as a negative control (Integrated DNA Technologies) were formulated in water and added to cultured cortical neurons grown on 6-well plates at DIV5 at a final concentration of 10 μM. Neurons were further cultured and treated at DIV7 with vehicle (0.1% DMSO) or the indicated compounds for 72 h. For western blot analysis, neurons were washed once with PBS and then lysed using RIPA buffer (50 mM Tris-HCl pH 8.0, 150 mM NaCl, 1% NP−40, 0.5% Na-deoxycholate, 0.5% SDS) and protease inhibitor cocktail (P8340, MilliporeSigma) on ice.
In general terms: Immunoblotting shows a protein as a band on a membrane.

Data set [1] can be described thus: cytotoxicity (% viable DAPI/NeuN neurons vs DMSO) in mouse primary neurons. The data set is classed as cell-based. To be noted: primary cortical neurons from E15.5 mouse embryos, mean ± SEM, n = 3. On the procedure:
Immunofluorescence for high-content imaging analysis was performed as previously described with slight modifications. Following drug treatment at DIV7, primary neurons were fixed at DIV10 with 4% paraformaldehyde in PBS at room temperature (RT) for 10 min. After three brief washes in PBS, neurons were permeabilized with PBS/1% Triton-X-100 at RT for 10 min, followed by blocking with PBS including 5% normal goat serum and 0.2% Triton-X-100 (NGST) at RT. […] All acquired images were analyzed by CellProfiler[48]. The mean GFP signal from each drug-treated well was normalized to the average mean GFP signal from DMSO-treated neurons. […] Fluorescent images were acquired using a Nikon Ti2 eclipse fluorescence microscope (Nikon Instruments Inc.) and analyzed using Nikon NIS-Elements software (Nikon Instruments Inc.). Antibody-enhanced UBE3A-YFP fluorescence intensities were determined from DAPI and NeuN double-positive neurons in drug-treated wells and normalized to neurons in DMSO-treated wells. The cytotoxicity of a compound was determined by calculating the percentage of neurons (DAPI and NeuN double-positive cells) alive in drug-treated wells compared to the DMSO-treated wells. For determining the effectiveness of unsilencing, the percent neurons expressing GFP signal in neurons (DAPI and NeuN double-positive cells) in drug-treated wells was thresholded such that the percent GFP positive neurons in DMSO-treated wells was set to ~5%. Concentrations where more than 10% of neurons were dead compared to DMSO-treated wells were manually removed and the last included data point was set as a maximum efficacy. Sigmoidal curve fitting for the dose-response analysis was performed using GraphPad Prism software version 8.0 (GraphPad Software).

In a further data set the test system is UBE3A mRNA. More on the design: method as in Sen et al.3. The settings on record: 11-week human cortical organoids, 72 hours, 1M topotecan, ref Sen et al.3; cited from earlier work.

As to `CC[C@@]1(O)C(=O)OCc2c1cc1n(c2=O)Cc2cc3c(CN(C)C)c(O)ccc3nc2-1` [Topotecan, reference compound], the “UBE3A protein levels vs DMSO” value in the data set on UBE3A protein is given as “significantly increased”. Further, half-maximal cytotoxicity in data set [1] (CC50 at 72 h) was put at 2.13 ± 0.62 µM. Further, the “increase of UBE3A mRNA levels” value in the data set on UBE3A mRNA is reported as 1.8 fold.

What is called CC50 is the concentration that lowers cell viability or growth by half.

These data come from paper PMC11231141, “Ube3a unsilencer for the potential treatment of Angelman syndrome” (Nature Communications, 2024).
